From patent US20260335294A1, “TREATING CONGENITAL DISORDERS OF GLYCOSYLATION” (Mayo Foundation for Medical Education and Research, priority 2022, published 2026)
Marks after values point to notes of the source that are not given here.

How the values were obtained:
[1] = test system: PMM2-CDG patients; assay: Urine polyols (sorbitol, mannitol) in patients on epalrestat; assay type: in vivo, human; conditions: for Urine Sorbitol: normal <5; for Urine Mannitol: normal < 20
Excerpt: (§1) The primary objective of the study was to assess the efficacy and safety of epalrestat treatment in 3 PMM2-CDG pediatric subjects prior to a planned Phase III clinical trial (Oral epalrestat therapy in Pediatric Subjects with PMM2-CDG, NCT04925960). The secondary objective was to assess the ability of epalrestat to improve clinically relevant aspects of PMM2-CDG such as increased urine polyols (sorbitol, mannitol), abnormal glycosylation (carbohydrate deficient transferrin), abnormal coagulation (ATIII=antithrombin III), impaired liver function (ALT=Alanine Transaminase, AST=Aspartate Transaminase), neurologic function (Brief Ataxia Rating Scale=BARS), severity of phenotype (Nijmegen Pediatric CDG Rating Scale=NPCRS). The ability of epalrestat to inhibit polyol production was monitored by evaluating urine polyol levels (sorbitol, mannitol), which are elevated in PMM2-CDG. Next, carbohydrate deficient transferrin, which is abnormal in PMM2-CDG, was evaluated in order to assess improvement of glycosylation following epalrestat treatment. CDT mono-oligo/dioligo ratio and a-oligo/dioligo ratio are used to evaluate glycosylation abnormalities. Transferrin normally occurs with two glycan chains (di-oligo). In the case of glycosylation abnormalities, glycan chains are missing (A-oligo transferrin has no glycan chains, mono-oligo has one glycan chain, di-oligo has two glycan chains). The higher ratio of a-oligo/di-oligo and mono-oligo/di-oligo indicate glycosylation abnormalities are present. Therefore, improvement in a-oligo/di-oligo and mono-oligo/di-oligo ratios can be used to monitor improvement or worsening of glycosylation status. Changes in the liver enzymes AST, ALT, which are frequently elevated in PMM2-CDG, were monitored both as part of a safety study and as part of monitoring clinical improvement in coagulation. Neurologic improvement was assessed by modified BARS scores in 2 patients (3rd patient was not eligible for the test due to age at the start of the trial). NPCRS was assessed at every visit to assess changes in the severity of the patients' phenotype. Additionally, the frequency of adverse events, changes in vital signs, complete blood count, and changes in BMI were monitored.
(§2) Two patients were started on epalrestat on single patient investigational new drug (IND) (P5 IRB: 19-010017; IND #145262; P6 Protocol PMM2-CDG-001/A). Epalrestat was initiated on the parents' own initiative in the third patient (P7). Two patients were in their second year of epalrestat treatment, while the third, was in the 3rd year of treatment. Physical, neurological, and biochemical examinations were performed in 3 PMM2-CDG patients at baseline, and at every three months after the start of the epalrestat treatment. Patients underwent NPCRS phenotype severity assessment and biological sampling at every visit. Epalrestat (Ono Pharmaceuticals, Osaka, Japan) was taken orally 3 times per day (TID) before meals in a divided dose, with dosage escalation throughout the treatment. The pharmacological profile of epalrestat was as described elsewhere (Ligezka et al, Ann. Neurol., 90(6):887-900 (2021)). The starting dosage in P5 and P6 was 0.8 mg/kg/day, while P7 was started on 0.5 mg/kg/day due to their young age. P7 dosage was increased to 0.8 mg/day after a month, once safety was established. Blood and urine samples were collected routinely. Urine polyols, carbohydrate deficient transferrin (CDT), anti-thrombin III (ATIII), liver enzymes (ALT, AST), and complete blood count (CBC) were performed. Modified Brief Ataxia Rating Scale was used to assess ataxia in the 2 patients (P5, P6; P7 was not eligible for the test due to age). The modified BARS scale included Archimedes spiral test, but not the abnormalities of the ocular pursuit system and the scale range was 0-54. Goal attainment scale (GAS) was administered as described per study protocol (ClinicalTrials.gov Identifier: NCT04199000). […]

[2] = test system: PMM2-CDG patients; assay: Carbohydrate deficient transferrin (CDT) in patients on epalrestat; assay type: in vivo, human; conditions: for CDT a-oligo/di-oligo ratio: C < 0.011; for CDT mono-oligo/di-oligo ratio: C < 0.06
Excerpt: as §1, §2

[3] = test system: aldose reductase (AR); conditions: role: inhibitor; cited from earlier work
[4] = test system: PMM2-CDG patients; assay: Modified Brief Ataxia Rating Scale (BARS) in patients on epalrestat; assay type: in vivo, human
Excerpt: as §1, §2

[5] = P6, Baseline column: first available results 3 months after starting treatment, 0.8 mg/kg day
[6] = P7, Baseline column: first available results 3 months after starting treatment, 0.5, 0.8 mg/kg day

## CC(/C=C1\SC(=S)N(CC(=O)O)C1=O)=C\c1ccccc1 [epalrestat]
[1]; P5, 12 months, 1.5 mg/kg day, baseline 19.9
  Urine Sorbitol: 10.7 mmol/mol Cr
[1]; P5, 12 months, 1.5 mg/kg day, baseline 648.6
  Urine Mannitol: 32.6 mmol/mol Cr
[1]; P5, 24 months, 2 mg/kg day, baseline 19.9
  Urine Sorbitol: 7.5 mmol/mol Cr
[1]; P5, 24 months, 2 mg/kg day, baseline 648.6
  Urine Mannitol: 45.3 mmol/mol Cr
[1]; P5, 28 months, 3 mg/kg day, baseline 19.9
  Urine Sorbitol: 7.86 mmol/mol Cr
[1]; P5, 28 months, 3 mg/kg day, baseline 648.6
  Urine Mannitol: 93.19 mmol/mol Cr
[1]; P5, underwent a fructose loading test
  urine mannitol during treatment: A fluctuation in mannitol
[1]; P5-P7, words
  urine polyol levels: decreased
  urine polyol levels during treatment: remained mostly stable
[1]; P6, 12 months, 1.5 mg/kg day
  Urine Sorbitol: 12.81 mmol/mol Cr
  Urine Mannitol: 14.77 mmol/mol Cr
[1]; P6, 18 months, 3 mg/kg day
  Urine Sorbitol: 9 mmol/mol Cr
  Urine Mannitol: 47 mmol/mol Cr
[1]; [5]
  Urine Sorbitol: 50.80# mmol/mol Cr
  Urine Mannitol: 23.90# mmol/mol Cr
[1]; P7, 12 months, 1.5 mg/kg day, baseline 9.85
  Urine Sorbitol: 0.03 mmol/mol Cr
[1]; P7, 12 months, 1.5 mg/kg day, baseline 10.37
  Urine Mannitol: 1.89 mmol/mol Cr
[2]; P5, 12 months, 1.5 mg/kg day, baseline 0.005
  CDT a-oligo/di-oligo ratio: 0.003
[2]; P5, 12 months, 1.5 mg/kg day, baseline 0.09
  CDT mono-oligo/di-oligo ratio: 0.06
[2]; P5, 24 months, 2 mg/kg day, baseline 0.005
  CDT a-oligo/di-oligo ratio: 0.010
[2]; P5, 24 months, 2 mg/kg day, baseline 0.09
  CDT mono-oligo/di-oligo ratio: 0.09
[2]; P5, 28 months, 3 mg/kg day, baseline 0.005
  CDT a-oligo/di-oligo ratio: 0.08
[2]; P5, 28 months, 3 mg/kg day, baseline 0.09
  CDT mono-oligo/di-oligo ratio: 0.07
[2]; P5, words
  CDT: Normalization of CDT
[2]; P6, 12 months, 1.5 mg/kg day, baseline 0.196
  CDT a-oligo/di-oligo ratio: 0.111
[2]; P6, 12 months, 1.5 mg/kg day, baseline 0.69
  CDT mono-oligo/di-oligo ratio: 0.43
[2]; P6, 18 months, 3 mg/kg day, baseline 0.196
  CDT a-oligo/di-oligo ratio: 0.105
[2]; P6, 18 months, 3 mg/kg day, baseline 0.69
  CDT mono-oligo/di-oligo ratio: 0.47
[2]; P6, 18 months, escalating doses, words
  CDT: significant improvement in CDT with a steady trend towards normalization
[2]; P7, 12 months, 1.5 mg/kg day
  CDT a-oligo/di-oligo ratio: 1.033
  CDT mono-oligo/di-oligo ratio: 1.58
[2]; [6]
  CDT a-oligo/di-oligo ratio: 0.919#
  CDT mono-oligo/di-oligo ratio: 1.60#
[2]; P7, one-year mark, words
  CDT: slight improvement
[2]; overall, words
  CDT: improvement
[3]
  mode of inhibition of AR: non-competitive inhibitor
[4]; P5, 12 months, 1.5 mg/kg day, baseline 39
  Modified BARS (max 54): 29
[4]; P5, 24 months, 2 mg/kg day, baseline 39
  Modified BARS (max 54): 33
[4]; P5, 28 months, 3 mg/kg day, baseline 39
  Modified BARS (max 54): 30
[4]; P5, P6, words
  ataxia (modified BARS scores): improvement in ataxia
[4]; P6, 12 months, 1.5 mg/kg day, baseline 45
  Modified BARS (max 54): 29
[4]; P6, 18 months, 3 mg/kg day, baseline 45
  Modified BARS (max 54): 27
